This is an account of results in patent EP0639183B1, “NITROGEN OXIDES OF AZA- AND DIAZA-ANTHRACENEDIONE DERIVATIVES, THEIR PREPARATION AND THEIR USE AS ANTITUMOR AGENTS” (BOEHRINGER MANNHEIM ITALIA S.P.A., priority 1991, dated 1992).

Data set [1] deals with murine L 1210 leukemia. The conditions noted are these: cited from earlier work.
Data set [2] has as its system Lovo/DX. Description: in vitro cytotoxic activity, MTT assay, resistant subline Lovo/DX. Type of data set: cell-based, human. The conditions noted are these: for resistance index RI (ratio of the IC50 for the resistant cell line to the IC50 for the sensitive cell line): Lovo/DX versus Lovo. Here is the method: (§1) The evaluation of the "in vitro" cytotoxic activity of the compounds of the invention was performed using a human colon adenocarcinoma cell line (Lovo) isolated from a metastatic nodule and a subline with aquired resistance to a number of antitumor agents, among which doxorubicin, VP-16 and vincristine. […] Cancer, (1986), 54, 515). The compounds were tested according to the MTT assay (Mosman, T. "Rapid Colorimetric assay for cellular growth and survival: application to proliferation and cytotoxicity assay", J. Immunol. Methods, (1983), 65, 55-63; Green. L.M., "Rapid Colorimetric assay for cell viability; application to the quantitation of cytotoxic and growth inhibitory lymphokines", J. Immunol. Methods, (1984), 70, 257-268) in comparison with ametantrone and doxorubicin.

The subject of data set [3] is human colon adenocarcinoma cell line (Lovo). Description: in vitro cytotoxic activity, MTT assay, Lovo cell line. The conditions noted are these: 144 hours drug-exposure. Type of data set: cell-based. The protocol: as §1
The subject of data set [4] is P 388 MURINE LEUKEMIA
Description: P 388 murine leukemia model in vivo (iv/iv 1,4,7). On the set-up: species or system CD2Fl mice. The protocol: Studies of the biological activity "in vivo" of representative compounds of the invention were performed using the P 388 and L 1210 murine leukemia models.
P 388 Murine leukemia cells were intravenously (iv) injected in CD2Fl mice. Treatment was initiated approximately 24 hours after tumor transplantation and dosages of the drug were administered iv according to preestablished protocols, usually at 3-day intervals. The studies were done over a 60 day period and the date of death for each animal was recorded. The % T/C was determined using the median survival time (MST) for each group according to the formula % T/C = [(MST treated)/(MST control)] x 100. [formula]

Data set [5] relates to MURINE LEUKEMIA L1210. Description: L 1210 murine leukemia model in vivo (iv/iv 1,4,7). Further details: species or system CD2Fl mice. Here is the method: The antitumor activity of representative compounds of this invention was evaluated also in the L 1210 murine leukemia model.
L 1210 leukemia cells were intravenously (iv) injected in CD2Fl mice and treatment was initiated approximately 24 hours after tumor transplantation. Dosages of the drugs were administered iv according to preestablished protocols, usually at 3-day intervals. The studies were done over a 60-day period and the date of death for each animal was recorded. The % T/C was determined using the median survival time (MST) for each group according to the formula % T/C = [(MST treated)/(MST control)] x 100. [formula]

Data set [6] deals with murine L 1210 leukemia. Conditions: cited from earlier work; for in vivo T/C: murine L 1210 leukemia.
The conditions of data set [7]: in animals; cited from earlier work.
Setting [8] is: P 388, iv on days 1,4,7, Dose 18 mg/kg/day.
[9] abbreviates: P 388, iv on days 1,4,7, Dose 27 mg/kg/day.
Setting [10] is: L1210, iv on days 1,4,7, Dose 40 mg/kg/day.
Setting [11] is: L1210, iv on days 1,4,7, Dose 60 mg/kg/day.
Setting [12] is: P 388, iv on days 1,4,7, Dose 2 mg/kg/day.
Setting [13] is: P 388, iv on days 1,4,7, Dose 3 mg/kg/day.
[14] abbreviates: P 388, iv on days 1,4,7, Dose 4 mg/kg/day.
The mark [15] stands for this setting: L1210, iv on days 1,4,7, Dose 2 mg/kg/day.
Setting [16] is: L1210, iv on days 1,4,7, Dose 3 mg/kg/day.

SMILES strings stand for the structures. Converted amounts (≈) assume the structure as drawn. “And” between values parts separate entries of the source, which are not always exact repeats. Equal values may be shown once. Read-outs that look alike come from different tables or passages of the source.

Consider `CCN(CC)CCNc1ccc(NCCN(CC)CC)c2c1C(=O)c1ccccc1C2=O` [Compound 6b], for which the “in vitro ID50” value in data set [1] is 0.30 µg/mL.

As to `CN(C)CCNc1ccc(NCCN(C)C)c2c1C(=O)c1cc[n+]([O-])cc1C2=O` [Compound 7a, 6,9-bis[N-(2-dimethylaminoethyl)amino]benzo[g]isoquinoline-5,10-dione-2-oxide], the concentration for half-maximal inhibition (IC50) in data set [2] (Homo sapiens, Lovo/DX resistant subline) was 2.68 µg/mL (≈ 6.74 µM); in data set [3], 0.44 µg/mL (≈ 1.11 µM). For the same molecule, the “resistance index RI (ratio of the IC50 for the resistant cell line to the IC50 for the sensitive cell line)” value in data set [2] worked out at 6.1.

As for `NCCNc1ccc(NCCN)c2c1C(=O)c1cc[n+]([O-])cc1C2=O.O=C(O)/C=C\C(=O)O.O=C(O)/C=C\C(=O)O` [Compound 7b, 6,9-bis[N-(2-aminoethyl)amino]benzo[g]isoquinoline-5,10-dione-2-oxide dimaleate], the “T/C% (range)” value was 122% in data set [4] (setting [8]); 133% in data set [4] (setting [9]); 144% and 166% and 194% in data set [4] (P 388, iv on days 1,4,7, Dose 40 mg/kg/day, dimaleate, 40 mg/kg/day); 200% and 225% in data set [4] (P 388, iv on days 1,4,7, Dose 60 mg/kg/day, dimaleate, 60 mg/kg/day); 211% and 262% in data set [4] (P 388, iv on days 1,4,7, Dose 80 mg/kg/day, dimaleate, 80 mg/kg/day); 266% in data set [5] (setting [10]). The “T/C% (range)” value in data set [5] (setting [11]) stood at 333%. In addition, the “TOX (Number of toxic deaths/total number of mice)” value in data set [4] (setting [8]) is given as 0/8; in data set [4] (setting [9]) it was 0/8; in data set [4] (P 388, iv on days 1,4,7, Dose 40 mg/kg/day) it was 1/24; in data set [4] (P 388, iv on days 1,4,7, Dose 60 mg/kg/day), 0/17; in data set [4] (P 388, iv on days 1,4,7, Dose 80 mg/kg/day) it was 4/17; in data set [5] (setting [10]) it was 0/8. Also, in data set [5] (setting [11]), the “TOX (Number of toxic deaths/total number of mice)” value is reported as 0/10. Further, the figures for the LTS in data set [5] (setting [10]) and in data set [5] (setting [11]) were 0/8 and 0/10, respectively.

Consider `CN(C)CCNc1ccc(NCCN(C)C)c2c1C(=O)c1cccnc1C2=O` [Compound 5a], for which the “antitumor activity in vivo (in words)” value in data set [6] (as reported in table II) is “inactive in vivo”. For the same molecule, the “in vivo T/C” value in data set [6] (Dose 50 mg/kg) is 130. Also, in data set [1], the “in vitro ID50” value is 0.16 µg/mL.

Regarding `O=C1c2ccccc2C(=O)c2c(NCCNCCO)ccc(NCCNCCO)c21` [ametantrone, 1,4-bis{[2-(2-hydroxyethylamino)ethyl]amino]anthracene-9,10-dione], in data set [7], the “less potent and cardiotoxic than mitoxantrone” value is given as “about 10 fold”. In addition, in data set [2], the “resistance index RI (ratio of the IC50 for the resistant cell line to the IC50 for the sensitive cell line)” value was determined as 101.2. This molecule showed an IC50 in data set [3] of 0.33 ± 0.1 µg/mL (≈ 0.8 µM).

For `O=C1c2c(O)ccc(O)c2C(=O)c2c(NCCNCCO)ccc(NCCNCCO)c21` [MITOX, 5,8-dihydroxy-1,4-bis([2-(2-hydroxyethylamino)ethyl]amino]anthracene-9,10-dione], the “T/C% (range)” value in data set [4] (setting [12]) is on record as 171(154-212) %; in data set [4] (setting [13]), 185(167-217) %; in data set [4] (setting [14]) it was 118(89-133) %; in data set [5] (setting [15]), 208%; in data set [5] (setting [16]), 216%. Further, the “TOX (Number of toxic deaths/total number of mice)” value is given as 0/50 in data set [4] (setting [12]); 12/84 in data set [4] (setting [13]); 20/24 in data set [4] (setting [14]); 0/8 in data set [5] (setting [15]); 0/8 in data set [5] (setting [16]). Besides, the LTS in data set [5] (setting [15]) and in data set [5] (setting [16]) was 0/8 each time.

With `CN(C)CCCNc1ccc(NCCCN(C)C)c2c1C(=O)c1cccnc1C2=O` [Compound 5c], in data set [1], the “in vitro ID50” value was 1.7 µg/mL.

As to `COc1cccc2c1C(=O)c1c(O)c3c(c(O)c1C2=O)C[C@@](O)(C(=O)CO)C[C@@H]3O[C@H]1C[C@H](N)[C@H](O)[C@H](C)O1` [doxorubicin], the “resistance index RI (ratio of the IC50 for the resistant cell line to the IC50 for the sensitive cell line)” value in data set [2] is on record as 142.7.

Regarding `CN(C)CCNc1ccc(NCCN(C)C)c2c1C(=O)c1ccccc1C2=O` [Compound 6a], in data set [6] (Dose 30 mg/kg), the “in vivo T/C” value is recorded as 150. Moreover, in data set [1], the “in vitro ID50” value was 0.08 µg/mL.

As for `CCN(CC)CCNc1ccc(NCCN(CC)CC)c2c1C(=O)c1cccnc1C2=O` [Compound 5b], the “in vivo T/C” value in data set [6] (Dose 100 mg/kg) was “toxic”. For the same molecule, the “in vitro ID50” value in data set [1] was 2.4 µg/mL.
